Experimental data published in the OPERA property sets (Mansouri et al. 2018).

conditions: not given

Row | SMILES | boiling point | log10 vapour pressure (mmHg) | melting point | log10 Koc (L/kg) | ready biodegradability | log10 biodegradation half-life (days) | log10 Henry constant (atm·m³/mol) | logP
1 | CCCCCC[C@H](C)I | 210 °C | 0.136 |  |  |  |  |  | 
2 | CCC(C)Nc1ccc(NC(C)CC)cc1 (stereo unspecified) |  |  | 18 °C |  |  |  |  | 
3 | CC(=O)OCCN(C)C | 152 °C |  |  |  |  |  |  | 
4 | CNC(=O)n1cc(F)c(=O)[nH]c1=O |  |  | 226 °C |  |  |  |  | 
5 | CC(C)(C)C(C)(C)Cl |  |  | 136 °C |  |  |  |  | 
6 | CON(C)C(=O)Nc1ccc(Cl)c(Cl)c1 |  | -5.84 | 93 °C | 2.7 | not readily biodegradable |  |  | 
7 | C=C(CC(=O)O)C(=O)O |  |  | 175 °C |  | readily biodegradable |  |  | 
8 | CCCC(C)C(=O)Nc1ccc(C)c(Cl)c1 (stereo unspecified) |  |  | 85 °C | 2.76 |  |  |  | 
9 | OCC(CO)(CO)CO |  |  | 260 °C |  | readily biodegradable |  |  | 
10 | NNc1cccc2ccccc12 |  |  | 117 °C |  |  |  |  | 
11 | CC1(C)OC(=O)CC1CC(=O)O (stereo unspecified) |  |  | 90 °C |  |  |  |  | 
12 | FC(Cl)C(Cl)Cl (stereo unspecified) | 102 °C |  |  |  |  |  |  | 
13 | O=C(CC(=O)c1ccccc1)c1ccccc1 |  |  | 70.5 °C |  | readily biodegradable |  |  | 
14 | CC(C)C(C)(C)C | 80.8 °C | 2.01 | -25 °C |  |  | 0.778 |  | 
15 | COc1ccc(C=Cc2ccc(OC)cc2)cc1 |  |  | 214 °C |  |  |  |  | 
16 | CCCSc1ccccc1 | 220 °C |  | -45 °C |  |  |  |  | 
17 | CCOP(=S)(OCC)SCSP(=S)(OCC)OCC |  | -5.82 | -13 °C | 4.06 |  |  |  | 
18 | c1ccc(-c2nnc(-c3ccccc3)o2)cc1 |  |  | 139 °C |  |  |  |  | 
19 | c1ccc2c(c1)C1c3ccccc3C2c2ccccc21 |  |  | 254 °C |  |  |  |  | 

Row | SMILES | boiling point | log10 vapour pressure (mmHg) | melting point | log10 Koc (L/kg) | ready biodegradability | log10 biodegradation half-life (days) | log10 Henry constant (atm·m³/mol) | logP
20 | CC(C)=CCOc1c2occc2cc2ccc(=O)oc12 |  |  | 102 °C |  |  |  |  | 
21 | O=C1C=C(Cl)C(=O)O1 | 196 °C |  | 33 °C |  |  |  |  | 
22 | CC1(C)C(=O)N(Br)C(=O)N1Cl |  |  | 164 °C |  |  |  |  | 
23 | C=CCCC(C)=O | 130 °C | 1.02 |  |  |  |  |  | 
24 | CCC(C)(C)Cl | 85.5 °C |  | -73.5 °C |  |  |  |  | 
25 | CCn1cc(C(=O)O)c(=O)c2cnc(N3CCNCC3)nc21 |  |  | 254 °C |  |  |  |  | 
26 | CC(S)CS (stereo unspecified) | 152 °C |  |  |  |  |  |  | 
27 | Oc1ncnc2[nH]ncc12 |  |  | 350 °C |  |  |  |  | 
28 | O=c1[nH]cc(F)c(=O)[nH]1 |  |  | 283 °C |  |  |  |  | 
29 | COc1cc(Cl)c(Cl)c(Cl)c1O |  | -2.73 |  | 2.8 |  |  |  | 
30 | S=C(SSC(=S)N1CCCCC1)N1CCCCC1 |  |  | 138 °C |  |  |  |  | 
31 | CC(=O)Nc1ccc(OCC(O)CNC(C)C)cc1 (stereo unspecified) |  |  | 135 °C |  |  |  |  | 
32 | CCOc1ccc(NS(=O)(=O)c2ccc(N)cc2)nn1 |  |  | 183 °C |  |  |  |  | 
33 | Cc1ccc([N+](=O)[O-])cc1 | 238 °C | -1.8 | 51.6 °C |  | not readily biodegradable |  | -5.25 | 
34 | Nc1cn[nH]c1 |  |  | 81 °C |  |  |  |  | 
35 | COC(=O)CCCCCCCCCCCC(=O)OC | 332 °C |  | 36 °C |  |  |  |  | 
36 | CC1(c2ccccc2)OC(C(=O)O)=CC1=O (stereo unspecified) |  |  | 176 °C |  |  |  |  | 
37 | O=[N+]([O-])c1c(Cl)c(Cl)cc(Cl)c1Cl | 304 °C | -2.74 | 99.5 °C | 4.05 |  |  |  | 
38 | Oc1ccc2cc(Cl)ccc2c1 |  |  | 116 °C |  |  |  |  | 

Row | SMILES | boiling point | log10 vapour pressure (mmHg) | melting point | log10 Koc (L/kg) | ready biodegradability | log10 biodegradation half-life (days) | log10 Henry constant (atm·m³/mol) | logP
39 | c1ccc(CCc2ccccc2)cc1 | 284 °C | -2.14 | 52.5 °C |  | readily biodegradable |  |  | 
40 | COc1cc(O)cc(OC)c1 |  |  | 37 °C |  |  |  |  | 
41 | COc1ccc(CC=O)cc1 | 256 °C |  |  |  |  |  |  | 
42 | CCOP(=S)(OCC)SCS(=O)(=O)C(C)(C)C |  |  |  | 2.18 |  |  |  | 
43 | C=CCCCCCCCCCO | 250 °C |  | -2 °C |  |  |  |  | 
44 | OCCN1CCN(CCCN2c3ccccc3C=Cc3ccccc32)CC1 |  |  | 100 °C |  |  |  |  | 
45 | C#C[C@]1(O)CC[C@H]2[C@@H]3CCC4=CC(=O)CC[C@@H]4[C@H]3CC[C@@]21CC |  |  | 223 °C |  |  |  |  | 
46 | COc1cccc(OC)c1C |  |  | 40 °C |  |  |  |  | 
47 | CCCCCCCCC=CCCCCCCCC(=O)OCC(O)C1OCC(O)C1O (stereo unspecified) |  |  |  |  | readily biodegradable |  |  | 
48 | COC(=O)c1ccc(Cl)c([N+](=O)[O-])c1 |  |  | 83 °C |  |  |  |  | 
49 | C=CCc1ccccc1 | 156 °C |  | -40 °C |  |  |  |  | 
50 | Cc1cc(C)c(Cl)c(O)c1Cl |  |  | 87.5 °C |  |  |  |  | 
51 | Brc1cc(Br)c(Oc2cc(Br)c(Br)cc2Br)cc1Br |  |  |  |  |  |  |  | 7.9
52 | CC(C)CC(=O)OC(=O)CC(C)C | 215 °C |  |  |  |  |  |  | 
53 | C=CCCC=C | 59.4 °C | 2.34 | -141 °C |  |  |  |  | 
54 | CCCCCCCCc1ccccc1Nc1ccccc1CCCCCCCC |  |  |  |  | not readily biodegradable |  |  | 
55 | CC(=O)[O-].[K+] |  |  | 292 °C |  |  |  |  | 
56 | COc1ccc(N)c([N+](=O)[O-])c1 |  |  | 124 °C |  | not readily biodegradable |  |  | 
57 | C=CC(C)(O)CC(C)C (stereo unspecified) | 146 °C |  |  |  |  |  |  | 

same assay, conditions: fish

Row | SMILES | log10 biotransformation half-life (days) | log10 BCF
58 | Clc1ccc(-c2c(Cl)cccc2Cl)cc1 | 2.44 | 
59 | c1ccc2c(c1)c1ccccc1c1ccccc21 | -0.08 | 
60 | C1CCCCCCCCCCC1 | 1.33 | 3.91
61 | Clc1cc(Cl)c(Cl)c(-c2cccc(Cl)c2Cl)c1 | 2.44 | 
62 | C=Cc1ccncc1 |  | 1.86
63 | Cc1cc(O)ccc1[N+](=O)[O-] |  | 1.06
64 | Brc1ccc(Br)cc1 | 0.31 | 2.21
65 | CON(C)C(=O)Nc1ccc(Cl)c(Cl)c1 | -0.97 | 1.25
66 | OCC(CO)(CO)CO |  | 0.1
67 | COc1cc(Cl)c(Cl)c(Cl)c1O |  | 1.97
68 | Cc1ccc([N+](=O)[O-])cc1 | -1.01 | 0.9
69 | O=[N+]([O-])c1c(Cl)c(Cl)cc(Cl)c1Cl | 0.49 | 3.23
70 | Brc1cc(Br)c(Oc2cc(Br)c(Br)cc2Br)cc1Br |  | 6.13
71 | COc1ccc(N)c([N+](=O)[O-])c1 | -0.87 | 0.85
